Results taken from the supplement of paper PMC13207355.
Structures can show the parent of a compound that is named as a salt.

Tests used:
Conditions in all cases: exposure time: 72 h
[1] = test system: E57 (patient-derived glioblastoma stem cells of mesenchymal subtype); experiment: phenotypic distance (Euclidean, principal components) from DMSO controls (arbitrary units); higher = stronger morphological change
[2] = test system: FT3469 (normal neural stem cell line); experiment: as above
[3] = test system: E13 (patient-derived glioblastoma stem cells of classical subtype); experiment: as above
[4] = test system: E28 (patient-derived glioblastoma stem cells of classical subtype); experiment: as above
[5] = test system: E31 (patient-derived glioblastoma stem cells of proneural subtype); experiment: as above
[6] = test system: E34 (patient-derived glioblastoma stem cells of proneural subtype); experiment: as above
[7] = test system: E21 (patient-derived glioblastoma stem cells of mesenchymal subtype); experiment: as above
[8] = test system: E57; experiment: surviving fraction (nuclei count normalised to DMSO); higher = more cells surviving (less toxic)
[9] = test system: FT3469; experiment: as above
[10] = test system: E13; experiment: as above
[11] = test system: E28; experiment: as above
[12] = test system: E31; experiment: as above
[13] = test system: E34; experiment: as above
[14] = test system: E21; experiment: as above
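Wherever phenotypic distance (Euclidean, principal components) from DMSO controls is given: cell Painting imaging in 384-well plates, CellProfiler features reduced to at least 20 principal components, Euclidean distance versus same-plate DMSO vehicle wells (0.1% v/v), median over six images per well.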
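Wherever surviving fraction (nuclei count normalised to DMSO) is given: nuclei counted by high-content imaging of Hoechst-stained cells in laminin-coated 384-well plates, relative to 0.1% DMSO vehicle wells, with staurosporine as cell-death control.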

N=C(N)c1ccc(-c2ccc(-c3ccc(C(=N)N)cc3)o2)cc1 [Furamidine dihydrochloride]
Conditions | phenotypic distance | surviving fraction
[1], 4.1 nM | 0.435 | –
[1], 12.3 nM | 0.369 | –
[1], 37 nM | 0.461 | –
[1], 111.1 nM | 0.581 | –
[1], 333.3 nM | 0.809 | –
[1], 1000 nM | 1.18 | –
[1], 3000 nM | 2 | –
[2], 4.1 nM | 0.956 | –
[2], 12.3 nM | 0.513 | –
[2], 37 nM | 0.833 | –
[2], 111.1 nM | 0.595 | –
[2], 333.3 nM | 0.891 | –
[2], 1000 nM | 1.39 | –
[2], 3000 nM | 3.24 | –
[3], 4.1 nM | 0.262 | –
[3], 12.3 nM | 0.642 | –
[3], 37 nM | 0.687 | –
[3], 111.1 nM | 0.7 | –
[3], 333.3 nM | 1.05 | –
[3], 1000 nM | 1.58 | –
[3], 3000 nM | 2.41 | –
[4], 4.1 nM | 0.942 | –
[4], 12.3 nM | 0.731 | –
[4], 37 nM | 0.378 | –
[4], 111.1 nM | 0.509 | –
[4], 333.3 nM | 0.894 | –
[4], 1000 nM | 1.65 | –
[4], 3000 nM | 3.07 | –
[5], 4.1 nM | 0.537 | –
[5], 12.3 nM | 0.559 | –
[5], 37 nM | 0.53 | –
[5], 111.1 nM | 0.588 | –
[5], 333.3 nM | 0.79 | –
[5], 1000 nM | 1.64 | –
[5], 3000 nM | 2.69 | –
[6], 4.1 nM | 0.516 | –
[6], 12.3 nM | 0.962 | –
[6], 37 nM | 0.515 | –
[6], 111.1 nM | 0.866 | –
[6], 333.3 nM | 1.16 | –
[6], 1000 nM | 2.15 | –
[6], 3000 nM | 3.96 | –
[7], 4.1 nM | 2.21 | –
[7], 12.3 nM | 0.291 | –
[7], 37 nM | 0.446 | –
[7], 111.1 nM | 0.567 | –
[7], 333.3 nM | 1.09 | –
[7], 1000 nM | 1.6 | –
[7], 3000 nM | 3.09 | –
[8], 4.1 nM | – | 0.99
[8], 12.3 nM | – | 0.991
[8], 37 nM | – | 1.08
[8], 111.1 nM | – | 0.988
[8], 333.3 nM | – | 0.981
[8], 1000 nM | – | 0.956
[8], 3000 nM | – | 0.828
[9], 4.1 nM | – | 0.904
[9], 12.3 nM | – | 0.883
[9], 37 nM | – | 0.856
[9], 111.1 nM | – | 0.949
[9], 333.3 nM | – | 1.12
[9], 1000 nM | – | 1
[9], 3000 nM | – | 1
[10], 4.1 nM | – | 0.977
[10], 12.3 nM | – | 0.987
[10], 37 nM | – | 0.954
[10], 111.1 nM | – | 0.919
[10], 333.3 nM | – | 1.02
[10], 1000 nM | – | 1.1
[10], 3000 nM | – | 1.07
[11], 4.1 nM | – | 0.932
[11], 12.3 nM | – | 1.02
[11], 37 nM | – | 0.995
[11], 111.1 nM | – | 1.04
[11], 333.3 nM | – | 0.901
[11], 1000 nM | – | 1.05
[11], 3000 nM | – | 0.861
[12], 4.1 nM | – | 0.988
[12], 12.3 nM | – | 0.965
[12], 37 nM | – | 0.911
[12], 111.1 nM | – | 1.08
[12], 333.3 nM | – | 1.01
[12], 1000 nM | – | 1.04
[12], 3000 nM | – | 1.2
[13], 4.1 nM | – | 0.983
[13], 12.3 nM | – | 1.13
[13], 37 nM | – | 1.1
[13], 111.1 nM | – | 1.21
[13], 333.3 nM | – | 1.2
[13], 1000 nM | – | 1.09
[13], 3000 nM | – | 1.2
[14], 4.1 nM | – | 0.927
[14], 12.3 nM | – | 0.912
[14], 37 nM | – | 1
[14], 111.1 nM | – | 1.01
[14], 333.3 nM | – | 1.02
[14], 1000 nM | – | 1.03
[14], 3000 nM | – | 0.975

COc1c(N2CCNC(C)C2)c(F)cc2c(=O)c(C(=O)O)cn(C3CC3)c12 (stereo unspecified) [Gatifloxacin]
Conditions | phenotypic distance | surviving fraction
[1], 4.1 nM | 0.413 | –
[1], 12.3 nM | 0.404 | –
[1], 37 nM | 0.488 | –
[1], 111.1 nM | 0.447 | –
[1], 333.3 nM | 0.584 | –
[1], 1000 nM | 0.465 | –
[1], 3000 nM | 0.475 | –
[2], 4.1 nM | 1.03 | –
[2], 12.3 nM | 0.624 | –
[2], 37 nM | 0.658 | –
[2], 111.1 nM | 0.568 | –
[2], 333.3 nM | 0.713 | –
[2], 1000 nM | 0.561 | –
[2], 3000 nM | 1.24 | –
[3], 4.1 nM | 0.675 | –
[3], 12.3 nM | 0.638 | –
[3], 37 nM | 0.734 | –
[3], 111.1 nM | 0.5 | –
[3], 333.3 nM | 0.838 | –
[3], 1000 nM | 0.825 | –
[3], 3000 nM | 0.702 | –
[4], 4.1 nM | 0.347 | –
[4], 12.3 nM | 0.661 | –
[4], 37 nM | 0.66 | –
[4], 111.1 nM | 0.527 | –
[4], 333.3 nM | 0.675 | –
[4], 1000 nM | 0.514 | –
[4], 3000 nM | 0.819 | –
[5], 4.1 nM | 0.659 | –
[5], 12.3 nM | 2.43 | –
[5], 37 nM | 0.809 | –
[5], 111.1 nM | 0.741 | –
[5], 333.3 nM | 0.52 | –
[5], 1000 nM | 0.474 | –
[5], 3000 nM | 0.691 | –
[6], 4.1 nM | 0.671 | –
[6], 12.3 nM | 0.619 | –
[6], 37 nM | 0.973 | –
[6], 111.1 nM | 0.498 | –
[6], 333.3 nM | 0.426 | –
[6], 1000 nM | 0.62 | –
[6], 3000 nM | 0.52 | –
[7], 4.1 nM | 1 | –
[7], 12.3 nM | 0.609 | –
[7], 37 nM | 0.741 | –
[7], 111.1 nM | 0.873 | –
[7], 333.3 nM | 0.581 | –
[7], 1000 nM | 1 | –
[7], 3000 nM | 0.84 | –
[8], 4.1 nM | – | 0.966
[8], 12.3 nM | – | 1.04
[8], 37 nM | – | 0.993
[8], 111.1 nM | – | 1.05
[8], 333.3 nM | – | 1.06
[8], 1000 nM | – | 1.05
[8], 3000 nM | – | 1.05
[9], 4.1 nM | – | 0.737
[9], 12.3 nM | – | 0.928
[9], 37 nM | – | 0.867
[9], 111.1 nM | – | 0.774
[9], 333.3 nM | – | 0.957
[9], 1000 nM | – | 0.995
[9], 3000 nM | – | 0.79
[10], 4.1 nM | – | 0.802
[10], 12.3 nM | – | 0.892
[10], 37 nM | – | 0.946
[10], 111.1 nM | – | 0.909
[10], 333.3 nM | – | 1.06
[10], 1000 nM | – | 0.806
[10], 3000 nM | – | 0.89
[11], 4.1 nM | – | 0.883
[11], 12.3 nM | – | 0.852
[11], 37 nM | – | 0.951
[11], 111.1 nM | – | 0.859
[11], 333.3 nM | – | 0.769
[11], 1000 nM | – | 0.982
[11], 3000 nM | – | 1.01
[12], 4.1 nM | – | 1.03
[12], 12.3 nM | – | 0.99
[12], 37 nM | – | 0.946
[12], 111.1 nM | – | 0.898
[12], 333.3 nM | – | 1.01
[12], 1000 nM | – | 1.04
[12], 3000 nM | – | 1.24
[13], 4.1 nM | – | 0.932
[13], 12.3 nM | – | 0.945
[13], 37 nM | – | 1.06
[13], 111.1 nM | – | 0.967
[13], 333.3 nM | – | 1.09
[13], 1000 nM | – | 0.908
[13], 3000 nM | – | 0.955
[14], 4.1 nM | – | 0.949
[14], 12.3 nM | – | 0.874
[14], 37 nM | – | 0.875
[14], 111.1 nM | – | 0.802
[14], 333.3 nM | – | 0.988
[14], 1000 nM | – | 0.814
[14], 3000 nM | – | 0.929
